Laboratory results as given in the NIST ThermoML archive (doi:10.1016/j.jct.2019.02.019).

Test: xn = mol fraction of the nth substance listed
Settings: 101 kPa, Liquid; for viscosity: Capillary tube (Ostwald / Ubbelohde) method; for mass density: Vibrating tube method

CN(CCO)CCO [N-methyldiethanolamine] + CCO
Settings | mass density, 293.15 K [kg/m3] | mass density, 303.15 K [kg/m3] | mass density, 313.15 K [kg/m3] | mass density, 323.15 K [kg/m3] | viscosity, 293.15 K [mPa·s] | viscosity, 303.15 K [mPa·s] | viscosity, 313.15 K [mPa·s] | viscosity, 323.15 K [mPa·s]
x1 = 0.1003 | 838.89 | 830.03 | 820.48 | 812.93 | 1.95 | 1.54 | 1.27 | 1.03
x1 = 0.2001 | 879.56 | 869.79 | 860.28 | 852.57 | 3.25 | 2.45 | 1.94 | 1.52
x1 = 0.3001 | 913.83 | 903.04 | 893.56 | 885.65 | 5.36 | 3.88 | 2.95 | 2.25
x1 = 0.3998 | 941.42 | 930.67 | 921.43 | 913.45 | 8.77 | 6.08 | 4.5 | 3.32
x1 = 0.5 | 964.94 | 954.51 | 945.44 | 937.39 | 14.09 | 9.41 | 6.64 | 4.79
x1 = 0.5999 | 984.81 | 974.63 | 965.86 | 957.92 | 21.94 | 14.14 | 9.68 | 6.79
x1 = 0.7 | 1001.91 | 992.31 | 983.56 | 975.64 | 33.37 | 20.8 | 13.69 | 9.4
x1 = 0.8001 | 1016.76 | 1007.51 | 999.13 | 991.3 | 49.36 | 29.56 | 18.85 | 12.44
x1 = 0.9005 | 1029.58 | 1020.96 | 1012.93 | 1005.16 | 72.94 | 41.84 | 25.38 | 16.52
x1 = 1 | 1040.5 | 1032.6 | 1024.76 | 1017.12 | 103.04 | 57.28 | 33.94 | 21.31

NCCO [2-aminoethan-1-ol] + CCO
Settings | mass density, 293.15 K [kg/m3] | mass density, 303.15 K [kg/m3] | mass density, 313.15 K [kg/m3] | mass density, 323.15 K [kg/m3] | viscosity, 293.15 K [mPa·s] | viscosity, 303.15 K [mPa·s] | viscosity, 313.15 K [mPa·s] | viscosity, 323.15 K [mPa·s]
x1 = 0.1002 | 816.84 | 808.87 | 799.33 | 791.69 | 1.56 | 1.27 | 1.05 | 0.87
x1 = 0.1999 | 843.68 | 834.94 | 825.34 | 817.35 | 2.12 | 1.68 | 1.36 | 1.11
x1 = 0.3002 | 868.92 | 860.42 | 850.66 | 842.49 | 2.89 | 2.23 | 1.77 | 1.42
x1 = 0.4004 | 893.15 | 884.54 | 874.69 | 866.58 | 3.96 | 2.98 | 2.29 | 1.8
x1 = 0.5 | 916.18 | 907.59 | 897.82 | 889.61 | 5.44 | 3.96 | 2.95 | 2.28
x1 = 0.5998 | 938.02 | 929.38 | 919.84 | 911.88 | 7.45 | 5.23 | 3.8 | 2.87
x1 = 0.7 | 959.13 | 950.81 | 941.56 | 933.03 | 10.19 | 6.92 | 4.87 | 3.6
x1 = 0.7996 | 978.96 | 970.81 | 961.95 | 953.82 | 13.74 | 9.05 | 6.17 | 4.48
x1 = 0.8994 | 998.41 | 989.98 | 981.44 | 973.33 | 18.22 | 11.74 | 7.74 | 5.48
x1 = 1 | 1016.3 | 1008.02 | 999.98 | 991.97 | 23.4 | 14.71 | 9.77 | 6.83

CN(CCO)CCO [N-methyldiethanolamine] + NCCO
Settings | mass density, 293.15 K [kg/m3] | mass density, 303.15 K [kg/m3] | mass density, 313.15 K [kg/m3] | mass density, 323.15 K [kg/m3] | viscosity, 293.15 K [mPa·s] | viscosity, 303.15 K [mPa·s] | viscosity, 313.15 K [mPa·s] | viscosity, 323.15 K [mPa·s]
x1 = 0.1001 | 1021.71 | 1013.23 | 1005.13 | 997.1 | 32.9 | 19.84 | 12.83 | 8.4
x1 = 0.2006 | 1025.79 | 1017.39 | 1009.3 | 1001.26 | 43.27 | 25.18 | 15.97 | 10.48
x1 = 0.3 | 1029.07 | 1020.72 | 1012.66 | 1004.69 | 52.78 | 30.53 | 18.92 | 12.49
x1 = 0.3998 | 1031.69 | 1023.42 | 1015.36 | 1007.45 | 62.64 | 35.8 | 21.86 | 14.3
x1 = 0.4994 | 1033.82 | 1025.62 | 1017.61 | 1009.72 | 71.4 | 40.6 | 24.53 | 15.83
x1 = 0.5997 | 1035.58 | 1027.46 | 1019.48 | 1011.68 | 79.47 | 45.11 | 26.97 | 17.35
x1 = 0.6977 | 1037.09 | 1029.04 | 1021.11 | 1013.34 | 86.28 | 48.61 | 29.05 | 18.6
x1 = 0.7996 | 1038.43 | 1030.43 | 1022.52 | 1014.79 | 92.9 | 52.06 | 30.87 | 19.64
x1 = 0.8995 | 1039.57 | 1031.61 | 1023.72 | 1016.04 | 98.21 | 54.8 | 32.88 | 20.56
x1 = 1 | 1040.5 | 1032.6 | 1024.76 | 1017.12 | 103.04 | 57.28 | 33.94 | 21.31
